Converted amounts (≈) assume the structure as drawn.
Assays:
Type in all cases: cell-based
[1] = tested on: Candida albicans ATCC 10231 (A); test: MIC determination by in vitro antifungal assay; settings: ATCC10231, 48 h, read-out: MIC (MIC-0)
[2] = tested on: C. albicans ATCC 64124(R) (B); test: MIC determination by in vitro antifungal assay; settings: Candida albicans, ATCC64124, 48 h, read-out: MIC (MIC-0)
[3] = tested on: C. albicans ATCC MYA-2876(S) (C); test: MIC determination by in vitro antifungal assay; settings: Candida albicans, 48 h, read-out: MIC (MIC-0)
[4] = tested on: C. albicans ATCC 90819(R) (D); test: MIC determination by in vitro antifungal assay; settings: Candida albicans, ATCC90819, 48 h, read-out: MIC (MIC-0)
[5] = tested on: C. albicans ATCC MYA-2310(S) (E); test: MIC determination by in vitro antifungal assay; settings: Candida albicans, 48 h, read-out: MIC (MIC-0)
[6] = tested on: C. albicans ATCC MYA-1237(R) (F); test: MIC determination by in vitro antifungal assay; settings: Candida albicans, 48 h, read-out: MIC (MIC-0)
[7] = tested on: C. albicans ATCC MYA-1003(R) (G); test: MIC determination by in vitro antifungal assay; settings: Candida albicans, 48 h, read-out: MIC (MIC-0)
[8] = tested on: Aspergillus flavus ATCC MYA-3631 (K); test: MIC determination against filamentous fungi; settings: 48 h, read-out: MIC (MIC-0)
[9] = tested on: Aspergillus nidulans ATCC 38163 (L); test: MIC determination against filamentous fungi; settings: ATCC38163, 48 h, read-out: MIC (MIC-0)
[10] = tested on: Aspergillus terreus ATCC MYA-3633 (M); test: MIC determination against filamentous fungi; settings: 48 h, read-out: MIC (MIC-0)
[11] = tested on: C. albicans, non-albicans Candida, and Aspergillus strains; test: Antifungal activity over the panel of 13 fungal strains; settings: for antifungal activity (in words): overall, fungal strains tested (27 except strains K and L)
Hemolytic activity assay = settings: mouse, murine red blood cells (mRBCs)

SMILES | MIC [1] [µg/mL] | MIC [2] [µg/mL] | MIC [3] [µg/mL] | MIC [4] [µg/mL] | MIC [5] [µg/mL] | MIC [6] [µg/mL] | MIC [7] [µg/mL] | MIC [8] [µg/mL] | MIC [9] [µg/mL] | MIC [10] [µg/mL] | antifungal activity class based on MIC values ([11]; against all fungal strains tested (5 and 6 except strain K)) | hemolysis at 60 min, 7.8 µg/mL (Hemolytic activity assay) [%] | antifungal activity (in words) [11] | MIC ([11]; read-out: antifungal activity class based on MIC values) [µg/mL]
CCCCCCCCCCN1CCNCC1 [Compound 5, 1-Decyl Piperazine] | 15.6 (≈ 68.9 µM) | 15.6 (≈ 68.9 µM) | 15.6 (≈ 68.9 µM) | 15.6 (≈ 68.9 µM) | 15.6 (≈ 68.9 µM) | 15.6 (≈ 68.9 µM) | 15.6 (≈ 68.9 µM) | 31.3 (≈ 138 µM) | 15.6 (≈ 68.9 µM) | 15.6 (≈ 68.9 µM) | moderately active | – | – | –
CCCCCCCCCCCCCCN1CCN(CC(O)(Cn2cncn2)c2ccc(F)cc2F)CC1 (centres unmarked) [Compound 24, 2-(2,4-Difluorophenyl)-1-(1H-1,2,4-triazol-1-yl)-3-(4-tetradecylpiperazine)propan-2-ol] | 1.95 (≈ 3.75 µM) | 31.3 (≈ 60.2 µM) | 7.8 (≈ 15 µM) | 1.95 (≈ 3.75 µM) | 3.9 (≈ 7.5 µM) | 3.9 (≈ 7.5 µM) | 1.95 (≈ 3.75 µM) | 0.48 (≈ 0.924 µM) | 1.95 (≈ 3.75 µM) | 0.975 (≈ 1.88 µM) | – | > 50 | – | –
OC(CN1CCOCC1)(Cn1cncn1)c1ccc(F)cc1F (centres unmarked) [Compound 27, 2-(2,4-Difluorophenyl)-1-(1H-1,2,4-triazol-1-yl)-3-(mopholine)-propan-2-ol] | > 31.3 | > 31.3 | > 31.3 | 3.9 to 31.3 (≈ 12 to 96.5 µM) | 7.8 to 31.3 (≈ 24 to 96.5 µM) | > 31.3 | 31.3 (≈ 96.5 µM) | – | 1.95 (≈ 6.01 µM) | 15.6 (≈ 48.1 µM) | – | – | inactive | –
CCCCCCCCN1CCNCC1 [Compound 3, 1-Octyl Piperazine] | > 31.3 | > 31.3 | > 31.3 | > 31.3 | > 31.3 | > 31.3 | > 31.3 | > 31.3 | > 31.3 | > 31.3 | – | – | – | –
OC(CNCCN1CCOCC1)(Cn1cncn1)c1ccc(F)cc1F (centres unmarked) [Compound 28, 2-(2,4-Difluorophenyl)-1-(1H-1,2,4-triazol-1-yl)-3-(4-(2-aminoethyl)morpholine)propan-2-ol] | 31.3 (≈ 85.2 µM) | 31.3 (≈ 85.2 µM) | 31.3 (≈ 85.2 µM) | > 31.3 | > 31.3 | 31.3 (≈ 85.2 µM) | > 31.3 | > 31.3 | > 31.3 | > 31.3 | – | – | inactive | –
CC[C@H](C)C[C@H](C)CCCCCCCCC(=O)N[C@H]1C[C@@H](O)[C@@H](NCCN)NC(=O)[C@@H]2[C@@H](O)CCN2C(=O)[C@H]([C@H](O)CCN)NC(=O)[C@H]([C@H](O)[C@@H](O)c2ccc(O)cc2)NC(=O)[C@@H]2C[C@@H](O)CN2C(=O)[C@H]([C@@H](C)O)NC1=O [CAS, caspofungin, reference compound] | 0.975 (≈ 0.892 µM) | 0.24 (≈ 0.22 µM) | 0.06 (≈ 0.0549 µM) | 0.12 (≈ 0.11 µM) | 0.12 (≈ 0.11 µM) | 0.24 (≈ 0.22 µM) | 0.48 (≈ 0.439 µM) | > 31.3 | > 31.3 | > 31.3 | – | – | – | –
CCCCCCCCCCCCCCN1CCOCC1 [Compound 10, 4-Tetradecyl Morpholine] | > 31.3 | > 31.3 | > 31.3 | > 31.3 | > 31.3 | > 31.3 | > 31.3 | > 31.3 | > 31.3 | > 31.3 | – | – | – | ≥ 31.3
CCCCCCCCCCCCCN1CCN(CC(O)(Cn2cncn2)c2ccc(F)cc2F)CC1 (centres unmarked) [Compound 23, 2-(2,4-Difluorophenyl)-1-(1H-1,2,4-triazol-1-yl)-3-(4-tridecylpiperazine)propan-2-ol] | 1.95 (≈ 3.86 µM) | 7.8 (≈ 15.4 µM) | 1.95 (≈ 3.86 µM) | 1.95 (≈ 3.86 µM) | – | – | – | 0.975 (≈ 1.93 µM) | 0.975 (≈ 1.93 µM) | 0.975 (≈ 1.93 µM) | – | – | – | –
Fc1ccc(C2(Cn3cncn3)CO2)c(F)c1 (centres unmarked) [Compound 14, 1-[[2-(2,4-Difluorophenyl)-2-oxiranyl]methyl]-1H-1,2,4-triazole] | > 31.3 | > 31.3 | > 31.3 | > 31.3 | > 31.3 | > 31.3 | > 31.3 | > 31.3 | > 31.3 | > 31.3 | – | – | inactivity | –

Source: article PMC5976239 (Journal of medicinal chemistry, 2017)
